In paper PMC7659962, “Essential Oils from Monarda fistulosa: Chemical Composition and Activation of Transient Receptor Potential A1 (TRPA1) Channels” (Molecules, 2020):

Target: T1, rTRPA1 (Rattus norvegicus, UniProt Q6RI86)
T1 construct: gene Trpa1
Assay: Fura-2 calcium imaging in stably transfected HEK […] cells
Type: cell-based
Conditions: 100 µM; agonist; HBSS pH […]; […] ratio change from baseline; blocked by HC-030031; nontransfected HEK cells as control

T1 sequence (Q6RI86 whole entry): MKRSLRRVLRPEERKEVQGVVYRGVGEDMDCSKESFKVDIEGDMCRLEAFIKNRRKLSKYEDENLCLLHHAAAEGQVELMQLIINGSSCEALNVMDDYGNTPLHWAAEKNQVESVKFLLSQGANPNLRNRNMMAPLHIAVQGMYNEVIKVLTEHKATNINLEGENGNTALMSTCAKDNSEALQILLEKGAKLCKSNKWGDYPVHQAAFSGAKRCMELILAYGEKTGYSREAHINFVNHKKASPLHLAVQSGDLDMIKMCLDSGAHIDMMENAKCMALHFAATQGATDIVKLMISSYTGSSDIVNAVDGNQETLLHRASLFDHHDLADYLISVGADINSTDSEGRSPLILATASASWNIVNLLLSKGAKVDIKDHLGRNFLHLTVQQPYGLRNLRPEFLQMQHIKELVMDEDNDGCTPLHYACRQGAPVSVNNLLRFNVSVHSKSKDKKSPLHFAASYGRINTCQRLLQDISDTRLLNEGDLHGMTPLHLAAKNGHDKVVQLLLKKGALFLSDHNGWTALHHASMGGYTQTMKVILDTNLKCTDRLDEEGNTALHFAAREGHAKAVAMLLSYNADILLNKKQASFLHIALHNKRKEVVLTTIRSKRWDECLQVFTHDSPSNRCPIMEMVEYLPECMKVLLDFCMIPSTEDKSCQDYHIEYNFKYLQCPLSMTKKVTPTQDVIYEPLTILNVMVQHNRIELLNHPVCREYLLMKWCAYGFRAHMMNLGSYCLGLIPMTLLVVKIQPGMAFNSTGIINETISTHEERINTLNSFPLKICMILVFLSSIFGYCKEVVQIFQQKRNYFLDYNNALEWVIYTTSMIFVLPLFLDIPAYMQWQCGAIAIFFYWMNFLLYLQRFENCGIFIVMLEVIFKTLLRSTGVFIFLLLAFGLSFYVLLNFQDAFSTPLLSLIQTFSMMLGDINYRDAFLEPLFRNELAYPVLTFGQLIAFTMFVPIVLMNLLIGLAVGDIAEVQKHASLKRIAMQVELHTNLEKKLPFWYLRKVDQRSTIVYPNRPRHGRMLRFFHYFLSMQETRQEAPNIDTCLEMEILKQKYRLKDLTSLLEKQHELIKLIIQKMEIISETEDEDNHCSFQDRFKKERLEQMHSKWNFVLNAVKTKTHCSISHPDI

Compound | HEK Cells / rTRPA1 / [Ca^2+]i Change
Cc1ccc(C(C)C)cc1O [Carvacrol] | 0.340 ± 0.012
Cc1ccc(C(C)C)c(O)c1 [Thymol] | 0.849 ± 0.013
C=CC(=C)CCC=C(C)C [β-Myrcene] | 0.111 ± 0.003
